This is an account of results in patent US9434711B2 (Janssen Pharmaceutica, NV, priority 2007, dated 2016).

Like-named read-outs stand apart in the source and are kept apart here.

Usually IC50 stands for the point on the concentration scale where inhibition reaches its midpoint.

For the test, the target named is canine TRPM8 (Canis lupus familiaris, UniProt Q1A7N1). The experiment in a line: In Vitro Canine TRPM8 Functional Assay (Ca2+ fluorescence, icilin activation). It is filed as cell-based. Particulars: for IC50: read-out: IC50; for inhibition at 0.2 µM: read-out: % Inh @ 0.2; for inhibition at 0.5 µM: compound at 0.5 μM, read-out: % Inh @ 0.5. The gist of the method: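 Eight-point dose-response curves, each point averaging quadruplicate wells, gave EC50 or IC50. Canine TRPM8-expressing HEK293 cells, dye-loaded (Calcium 3), were pre-exposed 5 min to compound, then challenged with icilin at roughly EC80; intracellular Ca2+ read by FLIPR or FDSS fluorescence.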
canine TRPM8, sequence (Q1A7N1 1-1104): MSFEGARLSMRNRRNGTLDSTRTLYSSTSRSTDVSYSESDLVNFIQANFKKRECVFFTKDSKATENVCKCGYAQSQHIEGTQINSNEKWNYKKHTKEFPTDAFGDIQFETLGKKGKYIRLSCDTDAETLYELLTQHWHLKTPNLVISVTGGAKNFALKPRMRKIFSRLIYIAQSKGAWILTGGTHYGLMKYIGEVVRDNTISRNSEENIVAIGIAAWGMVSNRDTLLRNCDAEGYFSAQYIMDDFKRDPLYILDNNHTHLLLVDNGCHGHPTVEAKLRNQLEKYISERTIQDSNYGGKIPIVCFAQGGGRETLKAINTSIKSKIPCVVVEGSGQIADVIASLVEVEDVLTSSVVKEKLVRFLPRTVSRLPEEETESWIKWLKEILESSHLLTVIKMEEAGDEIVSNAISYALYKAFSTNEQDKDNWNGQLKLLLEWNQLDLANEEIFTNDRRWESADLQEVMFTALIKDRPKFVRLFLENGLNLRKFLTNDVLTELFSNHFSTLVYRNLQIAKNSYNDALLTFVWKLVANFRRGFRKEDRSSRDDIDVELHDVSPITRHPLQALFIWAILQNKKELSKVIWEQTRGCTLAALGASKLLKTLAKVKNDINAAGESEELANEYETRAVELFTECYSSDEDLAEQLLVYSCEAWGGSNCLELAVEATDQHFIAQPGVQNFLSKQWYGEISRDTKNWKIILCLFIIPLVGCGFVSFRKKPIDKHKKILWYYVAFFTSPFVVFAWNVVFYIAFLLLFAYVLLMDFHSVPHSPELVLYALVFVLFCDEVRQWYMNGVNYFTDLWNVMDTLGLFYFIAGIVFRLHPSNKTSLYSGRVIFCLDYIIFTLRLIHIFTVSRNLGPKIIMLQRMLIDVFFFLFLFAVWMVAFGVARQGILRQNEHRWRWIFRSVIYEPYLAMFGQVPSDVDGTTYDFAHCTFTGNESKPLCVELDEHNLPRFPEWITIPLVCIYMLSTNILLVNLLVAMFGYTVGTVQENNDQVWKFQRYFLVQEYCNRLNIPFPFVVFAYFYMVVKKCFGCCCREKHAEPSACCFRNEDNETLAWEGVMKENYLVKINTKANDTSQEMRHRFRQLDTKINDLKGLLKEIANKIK

[1] abbreviates: HEK293 cells stably expressing canine TRPM8, icilin activation, eight-point dose-response.
Setting [2] is: compound at 0.2 μM, canine TRPM8, icilin activation.
The mark [3] stands for this setting: canine TRPM8, icilin activation.
The mark [4] stands for this setting: HEK293 cells stably expressing canine TRPM8, icilin activation, average of two or more determinations.
Where [5] appears, read: 0.2 μM compound, HEK293 cells stably expressing canine TRPM8, icilin activation.

`CCS(=O)(=O)N(Cc1ccc(F)c(C(F)(F)F)c1)c1sc2ccccc2c1-c1cncnc1` [Compound 199, N-(4-Fluoro-3-trifluoromethyl-benzyl)-N-(3-pyrimidin-5-yl-benzo[b]thiophen-2-yl)-ethanesulfonamide]: the IC50 under setting [1] was found to be 13 nM. In addition, the inhibition at 0.2 µM under setting [2] was 91%. In the same order, the values of `COC(=O)c1ccc(S(=O)(=O)N(Cc2ccc(F)c(C(F)(F)F)c2)c2sc3ccccc3c2C2CC2)cc1` [Compound 674, N-(3-Cyclopropyl-benzo[b]thiophen-2-yl)-N-(4-fluoro-3-trifluoromethyl-benzyl)-4-carbomethoxy-benzenesulfonamide] are 77.6 nM and 85.4%. The like results for `O=c1[nH]c(-c2ccc(S(=O)(=O)N(Cc3ccc(F)c(C(F)(F)F)c3)c3cc4ccccc4s3)cc2)no1` [Compound 483, N-(Benzo[b]thiophen-2-yl)-N-(4-fluoro-3-trifluoromethyl-benzyl)-4-(5-oxo-4,5-dihydro-[1,2,4]oxadiazol-3-yl)-benzenesulfonamide] were, in that order, 9 nM and 101%.

Regarding `COCCN(c1sc2ccccc2c1Br)S(=O)(=O)c1ccccc1` [Compound 252, N-(3-Bromo-benzo[b]thiophen-2-yl)-N-(2-methoxy-ethyl)-benzenesulfonamide], under setting [1], the IC50 came to 17.1 nM. The inhibition at 0.2 µM under setting [2] came to 102%. For `CCCCN(c1sc2ccccc2c1Br)S(=O)(=O)c1ccc(C2=NOS(=O)N2)cc1` (stereo not shown) [Compound 484, N-(3-Bromo-benzo[b]thiophen-2-yl)-N-(butyl)-4-(3H-[1,2,3,5]oxathiadiazole-2-oxide)-benzenesulfonamide], under setting [1], the IC50 is 21 nM. For the same molecule, the “% Inh @ 0.2 (μM)” value under setting [2] is 100%. Regarding `CCCCN(C1=C(OC)c2ccccc2S1(=O)=O)S(=O)(=O)c1ccc(C(=O)OC)cc1` [Compound 436, N-(Butyl)-N-(3-methoxy-1,1-dioxo-1H-benzo[b]thiophen-2-yl)-4-carbomethoxy-benzenesulfonamide], the half-inhibitory concentration (IC50) under setting [1] was determined as 4 nM. For the same molecule, the inhibition at 0.2 µM under setting [2] was determined as 89%.

Turning to `CCCCN(c1sc2ccccc2c1OC)S(=O)(=O)c1ccc(C(=O)OC)cc1` [Compound 422, N-(Butyl)-N-(3-methoxy-benzo[b]thiophen-2-yl)-4-carbomethoxybenzenesulfonamide], the IC50 under setting [1] is 18 nM. Besides, the inhibition at 0.2 µM under setting [2] turned out to be 97%. On to `CN1CCC[C@H]1CN(c1sc2ccccc2c1Br)S(=O)(=O)c1ccccc1` [Compound 241, (S)—N-(3-Bromo-benzo[b]thiophen-2-yl)-N-(1-methyl-pyrrolidin-2-ylmethyl)-benzenesulfonamide], for which the half-maximal inhibitory concentration (IC50) under setting [1] worked out at 106 nM. Also, the inhibition at 0.5 µM under setting [3] was found to be 97%. As to `O=C(O)c1ccc(S(=O)(=O)N(Cc2ccc(F)c(C(F)(F)F)c2)c2sc3ccccc3c2Cl)cc1` [Compound 294, N-(3-Chloro-benzo[b]thiophen-2-yl)-N-(4-fluoro-3-trifluoromethyl-benzyl)-4-carboxy-benzenesulfonamide], the IC50 under setting [1] was 1.8 nM. Further, under setting [2], the inhibition at 0.2 µM worked out at 99%. As for `COC(=O)c1ccc(S(=O)(=O)N(CCCC(F)(F)F)c2sc3ccccc3c2Cl)cc1` [Compound 530, N-(3-Chloro-benzo[b]thiophen-2-yl)-N-(4,4,4-trifluoro-butyl)-4-carbomethoxy-benzenesulfonamide], the inhibition at 0.2 µM under setting [2] was determined as 54%. Turning to `COc1cccc(CN(c2sc3ccccc3c2Br)S(=O)(=O)c2ccccc2)c1` [Compound 162, N-(3-Bromo-benzo[b]thiophen-2-yl)-N-(3-methoxy-benzyl)-benzenesulfonamide], under setting [1], the IC50 was determined as 4.5 nM. The inhibition at 0.5 µM under setting [3] amounted to 101%. `CS(=O)(=O)Nc1ccc(S(=O)(=O)N(Cc2ccc(F)c(C(F)(F)F)c2)c2sc3ccccc3c2Cl)c(O)c1` [Compound 780, N-(3-Chloro-benzo[b]thiophen-2-yl)-N-(4-fluoro-3-trifluoromethyl-benzyl)-2-hydroxy-4-methanesulfonylamino-benzenesulfonamide]: under setting [1], the half-maximal inhibitory concentration (IC50) was 145 nM. The inhibition at 0.2 µM under setting [2] was 72%. For the molecule `O=S(=O)(c1ccc(Cl)nc1)N(Cc1ccc(F)c(C(F)(F)F)c1)c1sc2ccccc2c1Cl` [Compound 338], the inhibition at 0.2 µM under setting [2] was found to be 95%.

Consider `COC(=O)c1ccc(CN(c2sc3ccccc3c2Br)S(=O)(=O)c2cccnc2)cc1` [Compound 406, N-(3-Bromo-benzo[b]thiophen-2-yl)-N-(4-carbomethoxy-benzyl)-pyridin-3-ylsulfonamide], for which, under setting [2], the inhibition at 0.2 µM turned out to be 66%. Still for that read-out and setting: the figure for `COC(=O)c1cccc(CN(c2cc3ccccc3s2)S(=O)(=O)c2cccnc2)c1` [Compound 379, N-(Benzo[b]thiophen-2-yl)-N-(3-carbomethoxy-benzyl)-pyridin-3-ylsulfonamide] is 54%.

For the molecule `Cc1c(N(CCCCC(F)(F)F)S(=O)(=O)c2cnccc2-c2nnn[nH]2)sc2ccccc12` [Compound 806, N-(3-Methyl-benzo[b]thiophen-2-yl)-N-(5,5,5-trifluoro-pentyl)-4-(1H-tetrazol-5-yl)-pyridin-3-ylsulfonamide], the 50% inhibitory concentration (IC50) under setting [4] was found to be 13 nM. For the molecule `O=C(O)c1ccc(S(=O)(=O)N(CCC(F)(F)F)c2cc3ccccc3s2)c(F)c1` [Compound 639, N-(3-Benzo[b]thiophen-2-yl)-N-(3,3,3-trifluoro-propyl)-2-fluoro-4-carboxy-benzenesulfonamide], the IC50 under setting [1] was found to be 128 nM. Besides, the “% Inh @ 0.2 (μM)” value under setting [2] is given as 84%. In the case of `Nc1ccc(S(=O)(=O)N(CCC(F)(F)F)c2cc3ccccc3s2)cc1` [Compound 499, 4-Amino-N-(benzo[b]thiophen-2-yl)-N-(3,3,3-trifluoro-propyl)-benzenesulfonamide], the IC50 under setting [1] came to 15 nM. The inhibition at 0.2 µM under setting [2] was found to be 101%.

Turning to `Cc1c(N(CCC(F)(F)F)S(=O)(=O)c2ccc(-c3nnn[nH]3)cc2)sc2ccccc12` [Compound 572, N-(3-Methyl-benzo[b]thiophen-2-yl)-N-(3,3,3-trifluoro-propyl)-4-(1H-tetrazol-5-yl)-benzenesulfonamide], under setting [1], the concentration for half-maximal inhibition (IC50) is 16.6 nM. For the same molecule, the inhibition at 0.2 µM under setting [2] was found to be 101%.

With `CN(C)C(=O)c1c(N(Cc2ccc(F)c(C(F)(F)F)c2)S(=O)(=O)c2ccccc2)sc2ccccc12` [Compound 457, N-(3-Dimethyl-carbamoyl-benzo[b]thiophen-2-yl)-N-(4-fluoro-3-trifluoromethyl-benzyl)-benzenesulfonamide], the IC50 under setting [1] is 47 nM. Moreover, the “% Inh @ 0.2 (μM)” value under setting [2] turned out to be 93%. Regarding `O=S(=O)(c1ccccc1)N(Cc1ccc(Cl)cc1)c1cc2ccccc2s1` [Compound 46, N-(Benzo[b]thiophen-2-yl)-N-(4-chloro-benzyl)-benzenesulfonamide], under setting [1], the 50% inhibitory concentration (IC50) turned out to be 84 nM. The inhibition at 0.5 µM under setting [3] came to 99%. `Cc1c(N(CCCF)S(=O)(=O)c2ccc(C(=O)O)cc2)sc2ccccc12` [Compound 824, N-(3-Fluoropropyl)-N-(3-methyl-benzo[b]thiophen-2-yl)-4-carboxy-benzenesulfonamide]: under setting [5], the inhibition at 0.2 µM is 98%. The IC50 under setting [4] amounted to 38 nM. Take `CS(=O)(=O)N(Cc1ccc(F)c(F)c1)c1sc2ccccc2c1CO` [Compound 216, N-(3,4-Difluoro-benzyl)-N-(3-hydroxymethyl-benzo[b]thiophen-2-yl)-methanesulfonamide]: under setting [1], the IC50 turned out to be 14 nM. Also, the inhibition at 0.2 µM under setting [2] was determined as 100%. For the molecule `CS(=O)(=O)CCN(c1sc2ccccc2c1Br)S(=O)(=O)c1ccccc1` [Compound 239, N-(3-Bromo-benzo[b]thiophen-2-yl)-N-(2-methanesulfonyl-ethyl)-benzenesulfonamide], under setting [1], the IC50 worked out at 92 nM. For the same molecule, the inhibition at 0.5 µM under setting [3] was 96%. The like results for `CCS(=O)(=O)N(Cc1ccc(F)c(F)c1)c1sc2ccccc2c1C` [Compound 41, N-(3,4-Difluoro-benzyl)-N-(3-methyl-benzo[b]thiophen-2-yl)-ethanesulfonamide] were, in that order, 5.4 nM and 99%. On to `CSc1ncccc1S(=O)(=O)N(Cc1ccc(F)c(C(F)(F)F)c1)c1sc2ccccc2c1C` [Compound 377, N-(3-Methyl-benzo[b]thiophen-2-yl)-N-(4-fluoro-3-trifluoromethyl-benzyl)-2-thiomethyl-pyridin-3-yl-sulfonamide], for which the “% Inh @ 0.2 (μM)” value under setting [2] is listed as 65%. As to `CCS(=O)(=O)N(Cc1ccc(F)c(C(F)(F)F)c1)c1sc2ccccc2c1C(C)OC` (stereo not shown) [Compound 839, N-(4-Fluoro-3-trifluoromethyl-benzyl)-N-[3-(1-methoxy-ethyl)-benzo[b]thiophen-2-yl]-ethanesulfonamide], under setting [5], the inhibition at 0.2 µM turned out to be 101%. Further, under setting [4], the IC50 worked out at 15.9 nM. Consider `Cc1c(N(Cc2ccc(F)c(C(F)(F)F)c2)S(=O)(=O)c2ccc(C(=O)O)o2)sc2ccccc12` [Compound 529, N-(3-Methyl-benzo[b]thiophen-2-yl)-N-(4-fluoro-3-trifluoromethyl-benzyl)-5-carboxy-furan-2-yl-sulfonamide], for which, under setting [2], the inhibition at 0.2 µM came out at 35%. Consider `COC(C)c1c(N(CCCF)S(=O)(=O)c2ccccc2)sc2ccccc12` (stereo not shown) [Compound 822, N-(3-Fluoro-propyl)-N-[3-(1-methoxy-ethyl)-benzo[b]thiophen-2-yl]-benzenesulfonamide], for which, under setting [5], the inhibition at 0.2 µM was 97%. Further, under setting [4], the IC50 was determined as 49 nM. Turning to `Cc1c(N(Cc2ccc(F)c(C(F)(F)F)c2)S(=O)(=O)c2ccc(-c3cc(C(F)(F)F)on3)s2)sc2ccccc12` [Compound 329, N-(3-Methyl-benzo[b]thiophen-2-yl)-N-(4-fluoro-3-trifluoromethyl-benzyl)-5-(5-trifluoromethyl-isoxazol-3-yl)-thien-2-ylsulfonamide], under setting [2], the inhibition at 0.2 µM is 17%.
